The record followed here is patent US6818203B2, “Use of perfluoroalkyl-containing metal complexes as contrast media in MR-imaging for visualization of plaque, tumors and necroses” (Schering Aktiengesellschaft, priority 2000, dated 2004).

The nature of series [1]: critical micelle formation concentration (CMC) by tensiometry. Type of series: physicochemical. On the procedure:
In aqueous systems, these amphiphilic molecules show the properties that are characteristic of standard surfactants (such as, e.g., sodium dodecylsulfate, SDS). They thus reduce the surface tension of water. By tensiometry, the so-called CMC (critical micelle formation concentration in mol/l) can be determined. In this respect, the surface tension is determined based on the concentration of the substance to be measured. The CMC can be calculated from the plot of the surface tension function (c) that is obtained. The critical micelle formation concentration of the compounds according to the invention must be <10^−3 mol/l, preferably <10^−4 mol/l.
(§1) Both the determination of the CMC and the photon correlation spectroscopy are described in H.-D. Dörfler, “Grenzflächen- und Kolloidchemie [Interface and Colloid Chemistry],” Weinheim, New York, Basel, Cambridge, Tokyo, VSH 1994.

Series [2] can be described thus: hydrodynamic micelle diameter (2 Rh) by photon correlation spectroscopy (PCS). Type of series: physicochemical.
Source text: The amphiphilic compounds according to the invention are combined in solution and are present as aggregates. The size (2 Rh) of such aggregates (e.g., micelles, rods, wafers, etc.) can be determined with the aid of […] (PCS).
As a second criterion, the hydrodynamic micelle diameter 2 Rh, which must be >1 nm, is therefore used. Those perfluoroalkyl-containing metal complexes according to the invention whose 2 RH is ≧3, quite especially preferably >4 nm, are especially suitable.
as §1

A short description of series [3]: proton relaxivity in plasma (R^1), Minispec P 20. The series is classed as physicochemical. The note with it: 40° C., 0.47 tesla, bovine plasma. On the procedure:
As a third criterion, the proton-relaxivity in plasma (R^1) at 40° C. and a field strength of 0.47 tesla is used. The relaxivity, which is indicated in [l/mmol·s], is the quantitative measurement for the shortening of relaxation time T^1 of the protons. For the purpose according to the invention, the relaxivity must be as high as possible and >10 l/mmol·s, preferably >13 l/mmol·s, especially preferably >15 l/mmol·s.
Relaxivity R^1 [l/mmol·s] of the MR-contrast media according to the invention was determined with the Minispec P 20 device of the Bruker Company. The measurements were taken at 40° C. and a field strength of 0.47 tesla. Eight measuring points were recorded by each T1-sequence: 180°-TI-90°, inversion recovery. As a medium, bovine plasma of the Kraeber Company was used. The contrast medium concentrations [mmol/l] in the batches were between 0.30 and 1.16.

For series [4], the system named is iliac lymph nodes. As to the kind of experiment: lymph node visualization (MRT) after intravenous administration in VX2-tumor-bearing rabbits. The series is classed as in vivo. The note with it: 200 μmol of Gd/kg i.v.; for signal in zones within the lymph node diagnosed as metastases (confirmed histologically): early images. As for the experimental part: The pictures of FIG. 6 show MR images of an iliac lymph node and of a primary tumor (VX2-tumor implanted i.m.) precontrast, 60 minutes and 20 hours after intravenous administration of 100 μmol of Gd/kg of body weight of metal complex I in rabbits. […] The enhancement in the healthy lymph node tissue was 382% at the time of 15 minutes p.i. and 419% at the time of 60 minutes p.i. […] The ratio of signal intensities of healthy lymph node tissue to metastasis was 3.0 at the time of 15 minutes p.i. and 3.4 at the time of 60 minutes p.i. […] The enhancement in the healthy lymph node tissue was 246% at the time of 15 minutes p.i. and 282% at the time of 60 minutes p.i. […] The ratio of signal intensities of healthy lymph node tissue to metastasis was 2.5 at the time of 15 minutes p.i. and 1.7 at the time of 60 minutes p.i. […] The enhancement in the healthy lymph node tissue was 297% at the time of 10 minutes p.i. and 269% at the time of 60 minutes p.i. […] The ratio of signal intensities of healthy lymph node tissue to metastasis was 5.1 at the time of 10 minutes p.i. and 1.9 at the time of 60 minutes p.i. […] The enhancement in the healthy lymph node tissue was 195% at the time of 15 minutes p.i. and 233% at the time of 60 minutes p.i. […] The ratio of signal intensities of healthy lymph node tissue to metastasis was 1.9 at the time of 15 minutes p.i. and 1.8 at the time of 60 minutes p.i.

Series [5] concerns iliac lymph nodes. As to the kind of experiment: lymph node visualization (MRT) after intravenous administration in rats. Type of series: in vivo. Particulars: for signal in healthy lymph node tissue (T1-weighted gradient-echo images): very shortly after injection. On the procedure:
By way of example, the pictures in FIG. 8 show MR images of iliac lymph nodes precontrast and up to 60 minutes after intravenous administration of 100 μmol of Gd/kg of body weight of metal complex X in rats. […] The enhancement was thus 263% at the time of 15 minutes p.i. and 254% at the time of 60 minutes p.i.
By way of example, the pictures in FIG. 11 show MR images of iliac lymph nodes precontrast and up to 60 minutes after intravenous administration of 200 μmol of Gd/kg of body weight of metal complex V in rats. […] The enhancement was thus 147% at the time of 15 minutes p.i. and 230% at the time of 60 minutes p.i.
By way of example, the pictures in FIG. 17 show MR images of iliac lymph nodes precontrast and up to 60 minutes after intravenous administration of 200 μmol of Gd/kg of body weight of metal complex III in rats. […] The enhancement was thus 320% at the time of 15 minutes p.i. and 401% at the time of 60 minutes p.i.

The mark [6] stands for this setting: 15 minutes p.i., 200 μmol of Gd/kg i.v.
The mark [7] stands for this setting: 60 minutes p.i., 200 μmol of Gd/kg i.v.

Each structure is given as a SMILES string.

Consider `COCCN(CCOCCC(F)(F)C(F)(F)C(F)(F)C(F)(F)C(F)(F)C(F)(F)C(F)(F)C(F)(F)F)C(=O)CNC(=O)C(C)N1CCN(CC(=O)[O-])CCN(CC(=O)[O-])CCN(CC(=O)[O-])CC1.[Gd+3]` (stereo not drawn) [metal complex X], for which the “CMC (critical micelle formation concentration)” value (“CMC” below) in series [1] was 7.9e-06 mol/L. Besides, the “2 Rh (hydrodynamic micelle diameter)” value in series [2] was 5.4 nm. Further, in series [3], the “R^1 Plasma (relaxivity)” value worked out at 25.7 mmol⁻¹ s⁻¹. In addition, the “signal in healthy lymph node tissue (T1-weighted gradient-echo images)” value (“signal in healthy lymph node tissue” for short) with iliac lymph nodes [4] and with iliac lymph nodes [5] (100 μmol of Gd/kg i.v.) was “strong signal rise” in each case. In addition, the “enhancement in the healthy lymph node tissue” value came out at 382% in the series with iliac lymph nodes [4] (15 minutes p.i.) and 419% in the series with iliac lymph nodes [4] (60 minutes p.i.). The “ratio of signal intensities of healthy lymph node tissue to metastasis” value (from here on “ratio of signal intensities … to metastasis”) in the series with iliac lymph nodes [4] (15 minutes p.i.) was 3.0; in the series with iliac lymph nodes [4] (60 minutes p.i.), 3.4. Besides, in the series with iliac lymph nodes [4], the “signal in zones within the lymph node diagnosed as metastases (confirmed histologically)” value (from here on “signal … (confirmed histologically)”) is “without signal rise”. The “enhancement in lymph node tissue” value amounted to 263% in the series with iliac lymph nodes [5] (15 minutes p.i., 100 μmol of Gd/kg i.v.) and 254% in the series with iliac lymph nodes [5] (60 minutes p.i., 100 μmol of Gd/kg i.v.).

Consider `CC(C(=O)NCC(=O)NCC(=O)N1CCN(C(=O)CNC(=O)CNC(=O)C(C)N2CCN(CC(=O)[O-])CCN(CC(=O)[O-])CCN(CC(=O)[O-])CC2)CCN(C(=O)COCCC(F)(F)C(F)(F)C(F)(F)C(F)(F)C(F)(F)C(F)(F)C(F)(F)C(F)(F)F)CCN(C(=O)CNC(=O)CNC(=O)C(C)N2CCN(CC(=O)[O-])CCN(CC(=O)[O-])CCN(CC(=O)[O-])CC2)CC1)N1CCN(CC(=O)[O-])CCN(CC(=O)[O-])CCN(CC(=O)[O-])CC1.[Gd+3].[Gd+3].[Gd+3]` (stereo not drawn) [metal complex XIV, 1,4,7-Tris{1,4,7-tris(N-(carboxylatomethyl)-10-[N-1-methyl-3,6-diaza-2,5,8-trioxooctane-1,8-diyl]-1,4,7,10-tetraazacyclododecane, Gdcomplex}-10-N-2H,2H,4H,4H,5H,5H-3-oxa-perfluoro-tridecanoyl]-1,4,7,10-tetraazacyclo-dodecane, Gd complex], for which the “CMC” value in series [1] was found to be 0.00089 mol/L. Besides, the “2 Rh (hydrodynamic micelle diameter)” value in series [2] stood at 2.2 nm. In addition, the “R^1 Plasma (relaxivity)” value in series [3] was 19.5 mmol⁻¹ s⁻¹. In the series with iliac lymph nodes [4], the “signal in healthy lymph node tissue” value was “strong signal rise” and the “signal … (confirmed histologically)” value is listed as “without signal rise”. Moreover, in the series with iliac lymph nodes [4] (10 minutes p.i.), the “enhancement in the healthy lymph node tissue” value is listed as 297% and the “ratio of signal intensities … to metastasis” value amounted to 5.1. Also, in the series on iliac lymph nodes [4] (60 minutes p.i.), the “enhancement in the healthy lymph node tissue” value is recorded as 269% and the “ratio of signal intensities … to metastasis” value worked out at 1.9.

For `O=C([O-])CN1CCN(CC(=O)[O-])CCN(CC(O)CNC(=O)CCCC(=O)N2CCN(C(F)(F)C(F)(F)C(F)(F)C(F)(F)C(F)(F)C(F)(F)C(F)(F)C(F)(F)F)CC2)CCN(CC(=O)[O-])CC1.[Gd+3]` (stereo not drawn) [metal complex III], the “CMC” value in series [1] amounted to 7.06e-06 mol/L. For the same molecule, the “2 Rh (hydrodynamic micelle diameter)” value in series [2] was found to be 3.2 nm. For the same molecule, the “R^1 Plasma (relaxivity)” value in series [3] came to 24.9 mmol⁻¹ s⁻¹. Further, the “signal in healthy lymph node tissue” value with iliac lymph nodes [4] and in the series with iliac lymph nodes [5] (200 μmol of Gd/kg i.v.) was “strong signal rise” in each case. For the same molecule, the “enhancement in the healthy lymph node tissue” value in the series with iliac lymph nodes [4] (15 minutes p.i.) amounted to 195%; in the series on iliac lymph nodes [4] (60 minutes p.i.) it was 233%. The “ratio of signal intensities … to metastasis” value was determined as 1.9 in the series with iliac lymph nodes [4] (15 minutes p.i.) and 1.8 with iliac lymph nodes [4] (60 minutes p.i.). Besides, the “signal … (confirmed histologically)” value in the series with iliac lymph nodes [4] was “without signal rise”. The “enhancement in lymph node tissue” value in the series on iliac lymph nodes [5] (setting [6]) was 320%; with iliac lymph nodes [5] (setting [7]), 401%.

Regarding `CC(C(=O)NCC(=O)N(CCOCCC(F)(F)C(F)(F)C(F)(F)C(F)(F)C(F)(F)C(F)(F)C(F)(F)C(F)(F)F)CC(O)CO)N1CCN(CC(=O)[O-])CCN(CC(=O)[O-])CCN(CC(=O)[O-])CC1.[Gd+3]` (stereo not drawn) [metal complex V], the “CMC” value in series [1] was 3.9e-06 mol/L. The “2 Rh (hydrodynamic micelle diameter)” value in series [2] amounted to 4.4 nm. In addition, the “R^1 Plasma (relaxivity)” value in series [3] amounted to 19.6 mmol⁻¹ s⁻¹. Besides, the “signal in healthy lymph node tissue” value in the series with iliac lymph nodes [4] and in the series with iliac lymph nodes [5] (200 μmol of Gd/kg i.v.) was “strong signal rise” in each case. The “enhancement in the healthy lymph node tissue” value is recorded as 246% with iliac lymph nodes [4] (15 minutes p.i.) and 282% with iliac lymph nodes [4] (60 minutes p.i.). Further, the “ratio of signal intensities … to metastasis” value in the series on iliac lymph nodes [4] (15 minutes p.i.) is given as 2.5; in the series on iliac lymph nodes [4] (60 minutes p.i.) it was 1.7. Moreover, the “signal … (confirmed histologically)” value with iliac lymph nodes [4] is given as “without signal rise”. Besides, the “enhancement in lymph node tissue” value in the series on iliac lymph nodes [5] (setting [6]) is on record as 147%; in the series with iliac lymph nodes [5] (setting [7]) it was 230%.
